Source: US20240246960A1 (adMare Therapeutics Society, priority 2021, published 2024)
Read-outs that look alike come from different tables or passages of the source.

Experiments:
[1] = Microsomal stability assay, mouse liver microsomes; conditions: for microsomal CLint at 0.1 uM: male, CD-1, mouse, liver microsomes, pH 7.4, Microsomal Stability Mouse Clint, 0.1 mg/mL microsomes, 0.1 uM compound
Description: Mouse liver microsomes were obtained from a pool of 250 or more male CD-1 mice. […] Final microsomal concentration was 0.1 mg/mL and test compound concentration was 0.1 uM with a maximum of 0.01% DMSO. The test compound was pre-incubated with pooled liver microsomes in phosphate buffer (pH 7.4) for 5 min in a 37° C. shaking water bath. The reaction was initiated by adding NADPH-generating system and incubated for 0, 15, 30, 45, and 60 min. The reaction was stopped by transferring the incubation mixture to acetonitrile/methanol. Samples were then mixed and centrifuged. Supernatants were used for HPLC-MS/MS analysis. The HPLC system consisted of a binary LC pump with autosampler, a C-18 column, and a gradient. Peak areas corresponding to the test compound were recorded. The compound remaining was calculated by comparing the peak area at each time point to time zero. The half-life was calculated from the slope of the initial linear range of the logarithmic curve of compound remaining (%) vs. time, assuming first order kinetics. In addition, the intrinsic clearance (Clint) was calculated from the half-life.

DNA-PK = molecular target: T1, DNA-PK (Homo sapiens, UniProt P78527); assay: DNA-PK Assay for Biochemical Enzymatic Inhibition (ADP Glo Kinase assay); conditions: Table 1
T1 construct: purchased Invitrogen PR9107A
Outline: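 Human DNA-PK (25 ng) preincubated 15 min with compounds (ten three-fold dilutions) in HEPES pH 7.5, MgCl2, KCl, calf thymus DNA buffer, then substrate 434.4 μM and ATP 64.4 μM (final) for 60 min at room temperature. ADP-Glo luminescence; percent inhibition fitted by four-parameter regression for IC50.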

[2] = molecular target: T2, pDNA-PK ser2056 induction in FaDU spheroids (Homo sapiens, UniProt P78527); assay: Multicellular tumour spheroid + radiation, pDNA-PK inhibition, FaDU; assay type: cell-based; conditions: 20 Gy
T2 construct: host or cells: FaDu
Description: (§1) Multicellular tumour spheroids determination of compound inhibition of pDNA-PK induction following radiation. Tumour spheroids were grown to approximately 0.5 mm in diameter and irradiated with 20 Gy in combination with inhibitor test compounds to determine their potency. Inhibitor concentration for 50% reduction in pDNA-PK induction (IC50) was determined via immunohistochemical staining in spheroid cryosections taken 2 hours following radiation. For cell survival endpoint 8 Gy radiation was used and 3 hours following radiation spheroids were dissociated, counted and plated for colony forming endpoint.
Spheroid+radiation pDNA-PK. Radiation: 20 Gy. Drug: serial dilution 5 or 10 μM down to 3.5 nM (11 wells). Spheroids: 3-6 spheroids per well (300-500 μm diameter). 20% O2 and 5% CO2. 96 well plate format. Endpoint: fluorescent immunostain pDNA-PK ser2056 and image on microscope. Analysis: determine EC50 concentrations that decreases pDNA-PK induction […] after irradiation.
(§2) Multicellular tumour spheroids were used to determine potency of test compounds in a 3D tissue environment using inhibition of pDNA-PK induction following radiation or cell survival as the endpoint. For the pDNA-PK endpoint HCT116 or FaDU tumour spheroids were grown to approximately 0.5 mm in diameter and irradiated with 20 Gy in combination with inhibitor test compounds to determine their potency. Experiments were carried out in 96 well plates containing 0.7 mls of MEM media containing 10% FBS and 10 mM glucose under 20% O2 & 5% CO2 at 37° C. Following dilution of compounds 1:1000 from DMSO stocks, compounds were serially diluted from 10 μM down to 3.5 nM and 5-10 spheroids added. 96 well plates were constantly stirred to avoid spheroids settling during the course of the experiment. The inhibitor concentration for 50% reduction in pDNA-PK induction (EC50) was determined via immunohistochemical staining in spheroid cryosections taken 2 hours following radiation using anti-pDNA-PK (ser 2056) and fixed immediately in formalin following sectioning. For cell survival endpoint 8 Gy radiation was used and, 3 hours following radiation, spheroids were dissociated, counted and plated for colony forming endpoint. Data presented in the table compound potency as EC50 [μM].

HCT116 spheroids = assay: Spheroid + radiation colony forming cell survival assay (SF), HCT116; assay type: cell-based; conditions: 8 Gy
Description: as §1
Spheroid+radiation colony forming cell survival assay (SF). Radiation 8 Gy. Drug: serial dilution 5 μM down to 10 nM (12 wells×2 repeat). Spheroids: 5-10 spheroids per well ([…]). HCT116. 5% O2 and 5% CO2. 96 well pate format for assay. Protocol: pre incubate 1 hour with drug, irradiate 8 Gy, post incubate 3 hrs with drug, dissociate spheroids and count cells and plate for colony forming assay. Endpoint: wait 4-7 days and count colonies. Analysis: determine EC50 concentration that increase cell kill by 50% over radiation alone.
as §2

[3] = Hepatocyte stability assay, mouse hepatocytes; assay type: in vitro ADME
Outline: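 Pooled cryopreserved hepatocytes (male CD-1 mouse, or mixed-gender human donors; ≥10 each) at 0.7 million viable cells/mL in Krebs-Henseleit buffer pH 7.3, with 1 uM compound (≤0.01% DMSO). Incubated up to 2 h at 37 °C/5% CO2, quenched with acetonitrile; parent compound followed by HPLC-MS/MS peak area.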

[4] = Example 8, spheroid, read-out: Cell line: FaDU Immunohistochemical endpoint pDNA-PK inhibition EC50
[5] = Example 9 Study 2, 20% O2, read-out: Spheroid Cell line: FaDU Immunohistochemical endpoint pDNA-PK inhibition EC50
[6] = Example 8, spheroid, read-out: Cell line: HCT116 Colony forming endpoint Surviving Fraction EC50
[7] = Example 9 Study 2, read-out: Spheroid Cell line: HCT116 Colony forming endpoint Surviving Fraction EC50

Compound | Microsomal Stability (mouse) % rem. 60 min [1] | microsomal CLint at 0.1 uM [1] [µL/min/mg] | IC50 (DNA-PK) [nM] | EC50 [2, 4] [nM] | EC50 [2, 5] [nM] | Hepatocyte Stability (mouse) % rem. 120 min ([3]; 120 min) | hepatocyte CLint at 1 uM ([3]; male, CD-1, mouse, cryopreserved hepatocytes, pH 7.3, 0.7 million cells per mL, 1 uM compound) [µL/min/1e6 cells] | EC50 (HCT116 spheroids; [6]) [nM] | EC50 (HCT116 spheroids; [7]) [nM]
Cc1nc(C(F)(F)F)cn1[C@H]1CC[C@@H](Oc2nc(N3CCOCC3)cc3ncccc23)CC1 [Compound 17i, 4-(5-(((1s,4s)-4-(2-methyl-4-(trifluoromethyl)-1H-imidazol-1-yl)cyclohexyl)oxy)-1,6-naphthyridin-7-yl)morpholine] |  |  | 0.5 to 1 | 500 to 1000 | 500 to 1000 |  |  | 10 to 500 | 10 to 500
Oc1cnc2cc(N3CCOCC3)nc(O[C@H]3CC[C@@H](Nc4ncccn4)CC3)c2c1 [Compound 19a, 7-Morpholino-5-(((1s,4s)-4-(pyrimidin-2-ylamino)cyclohexyl)oxy)-1,6-naphthyridin-3-ol] | F (% remaining = 25-50%) | > 116 | 1 to 10 | 500 to 1000 | 500 to 1000 |  |  | 500 to 1000 | 500 to 1000
CCOCCOc1cnc(N[C@H]2CC[C@@H](Oc3nc(N4CCOCC4)cc4ncc(O)cc34)CC2)nc1 [Compound 19b, 5-(((1s,4s)-4-((5-(2-Ethoxyethoxy)pyrimidin-2-yl)amino)cyclohexyl)oxy)-7-morpholino-1,6-naphthyridin-3-ol] |  |  | 1 to 10 | 500 to 1000 | 500 to 1000 |  |  | 10 to 500 | 10 to 500
FC(F)Oc1cnc(N[C@H]2CC[C@@H](Oc3nc(N4CCOCC4)cc4ncccc34)CC2)nc1 [Compound 35, 5-(Difluoromethoxy)-N-((1s,4s)-4-((7-morpholino-1,6-naphthyridin-5-yl)oxy)cyclohexyl)pyrimidin-2-amine] | E (% remaining = 0-25%) | > 116 | 1 to 10 |  |  |  |  | 1000 to 10000 | 1000 to 10000
O=C(N[C@H]1CC[C@@H](Oc2nc(N3CCOCC3)cc3ncccc23)CC1)c1ccc(C(F)(F)F)o1 [Compound 133, N-((1s,4s)-4-((7-Morpholino-1,6-naphthyridin-5-yl)oxy)cyclohexyl)-5-(trifluoromethyl)furan-2-carboxamide] | E (% remaining = 0-25%) | > 116 | 0.5 to 1 |  |  |  |  | 1000 to 10000 | 1000 to 10000

Now from value to compound, other results behind:

Microsomal Stability (mouse) % rem. 60 min [1] | microsomal CLint at 0.1 uM [1] [µL/min/mg] | IC50 (DNA-PK) [nM] | EC50 [2, 4] [nM] | EC50 [2, 5] [nM] | Hepatocyte Stability (mouse) % rem. 120 min ([3]; 120 min) | hepatocyte CLint at 1 uM ([3]; male, CD-1, mouse, cryopreserved hepatocytes, pH 7.3, 0.7 million cells per mL, 1 uM compound) [µL/min/1e6 cells] | Compound | EC50 (HCT116 spheroids; [6]) [nM] | EC50 (HCT116 spheroids; [7]) [nM]
E (% remaining = 0-25%) | > 116 | 0.5 to 1 | 500 to 1000 | 500 to 1000 |  |  | Fc1cn([C@H]2CC[C@@H](Oc3nc(N4CCOCC4)cc4ncccc34)CC2)cn1 [Compound 17a, 4-(5-(((1s,4s)-4-(4-fluoro-1H-imidazol-1-yl)cyclohexyl)oxy)-1,6-naphthyridin-7-yl)morpholine] | 10 to 500 | 10 to 500
E (% remaining = 0-25%) | > 116 | < 0.5 | 500 to 1000 | 500 to 1000 |  |  | FC(F)(F)c1cncn1[C@H]1CC[C@@H](Oc2nc(N3CCOCC3)cc3ncccc23)CC1 [Compound 17j, 4-(5-(((1s,4s)-4-(5-(trifluoromethyl)-1H-imidazol-1-yl)cyclohexyl)oxy)-1,6-naphthyridin-7-yl)morpholine] | 500 to 1000 | 500 to 1000
 |  | < 0.5 | 500 to 1000 | 500 to 1000 |  |  | COc1cnc(N[C@H]2CC[C@@H](Oc3nc(N4CCOCC4)cc4ncc(O)cc34)CC2)nc1 [Compound 19c, 5-(((1s,4s)-4-((5-Methoxypyrimidin-2-yl)amino)cyclohexyl)oxy)-7-morpholino-1,6-naphthyridin-3-ol] | 10 to 500 | 10 to 500
F (% remaining = 25-50%) | < 116 | < 0.5 | 1000 to 10000 | 1000 to 10000 | G (% remaining = 50-75%) | < 8.2 | CS(=O)(=O)Nc1cnc2cc(N3CCOCC3)nc(O[C@H]3CC[C@@H](n4ccnc4)CC3)c2c1 [Compound 161, N-(5-(((1s,4s)-4-(1H-imidazol-1-yl)cyclohexyl)oxy)-7-morpholino-1,6-naphthyridin-3-yl)methanesulfonamide] |  | 
